{
  "source": "ChEMBL document CHEMBL4507300",
  "about": "(2021)",
  "key": {"[1]": {"molecular_target": "Cyclin-dependent kinase 11B (Homo sapiens) (UniProt P21127)", "conditions": "Compound concentration 1000.0 nM"}, "[2]": {"molecular_target": "Serine/threonine-protein kinase pim-1 (Homo sapiens) (UniProt P11309)", "conditions": "Compound concentration 1000.0 nM"}, "[3]": {"system": "Epidermal growth factor receptor (Homo sapiens), P00533 [L861Q]", "conditions": "Compound concentration 1000.0 nM"}, "[4]": {"molecular_target": "Alpha-1A adrenergic receptor (Homo sapiens) (UniProt P35348)", "conditions": "Compound concentration 10.0 uM"}, "[5]": {"molecular_target": "Calcium/calmodulin-dependent protein kinase kinase 1 (Homo sapiens) (UniProt Q8N5S9)", "conditions": "Compound concentration 1000.0 nM"}, "[6]": {"molecular_target": "Homeodomain-interacting protein kinase 4 (Homo sapiens) (UniProt Q8NE63)", "conditions": "Compound concentration 1000.0 nM"}, "[7]": {"molecular_target": "Mitogen-activated protein kinase kinase kinase 14 (Homo sapiens) (UniProt Q99558)", "conditions": "Compound concentration 1000.0 nM"}, "[8]": {"molecular_target": "Cyclin-dependent kinase 13 (Homo sapiens) (UniProt Q14004)", "conditions": "Compound concentration 1000.0 nM"}, "[9]": {"molecular_target": "Serine/threonine-protein kinase STK11 (Homo sapiens) (UniProt Q15831)", "conditions": "Compound concentration 1000.0 nM"}, "[10]": {"molecular_target": "Alpha-1B adrenergic receptor (Homo sapiens) (UniProt P35368)", "conditions": "Compound concentration 10.0 uM"}, "[11]": {"molecular_target": "Serine/threonine-protein kinase PRP4 homolog (Homo sapiens) (UniProt Q13523)", "conditions": "Compound concentration 1000.0 nM"}, "[12]": {"system": "Proto-oncogene tyrosine-protein kinase receptor Ret (Homo sapiens), P07949 [V804L]", "conditions": "Compound concentration 1000.0 nM"}, "[13]": {"molecular_target": "Ephrin type-A receptor 6 (Homo sapiens) (UniProt Q9UF33)", "sequence (Q9UF33 whole entry)": "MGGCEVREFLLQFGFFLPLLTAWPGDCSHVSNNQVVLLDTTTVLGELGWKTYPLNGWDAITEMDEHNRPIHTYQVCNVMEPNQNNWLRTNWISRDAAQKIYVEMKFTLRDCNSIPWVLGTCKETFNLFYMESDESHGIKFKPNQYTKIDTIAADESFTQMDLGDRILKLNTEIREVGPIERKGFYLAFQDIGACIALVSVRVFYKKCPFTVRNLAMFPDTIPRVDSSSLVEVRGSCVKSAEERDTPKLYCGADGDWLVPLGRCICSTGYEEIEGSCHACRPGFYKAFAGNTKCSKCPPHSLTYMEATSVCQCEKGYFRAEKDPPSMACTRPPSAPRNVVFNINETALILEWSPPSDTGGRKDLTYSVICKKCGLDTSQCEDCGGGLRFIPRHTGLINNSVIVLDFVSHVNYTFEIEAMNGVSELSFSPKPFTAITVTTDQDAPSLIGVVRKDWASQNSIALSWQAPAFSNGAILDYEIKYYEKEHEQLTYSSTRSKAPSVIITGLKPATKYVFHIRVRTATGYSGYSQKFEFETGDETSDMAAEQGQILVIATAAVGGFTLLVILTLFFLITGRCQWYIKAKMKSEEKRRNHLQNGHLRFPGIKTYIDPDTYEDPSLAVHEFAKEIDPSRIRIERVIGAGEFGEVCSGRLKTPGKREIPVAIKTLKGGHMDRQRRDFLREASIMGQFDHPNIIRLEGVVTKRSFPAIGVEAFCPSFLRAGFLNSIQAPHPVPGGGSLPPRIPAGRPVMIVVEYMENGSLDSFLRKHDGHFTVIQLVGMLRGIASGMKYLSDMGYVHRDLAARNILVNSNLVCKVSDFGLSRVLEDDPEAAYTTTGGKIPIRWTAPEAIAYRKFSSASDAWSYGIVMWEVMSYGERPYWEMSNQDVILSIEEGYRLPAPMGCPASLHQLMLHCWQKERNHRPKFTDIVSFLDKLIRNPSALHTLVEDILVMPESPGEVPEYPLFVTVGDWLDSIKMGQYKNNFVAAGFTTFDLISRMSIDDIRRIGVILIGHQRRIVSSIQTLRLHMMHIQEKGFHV", "conditions": "Compound concentration 1000.0 nM"}, "[14]": {"molecular_target": "Cyclin-dependent kinase 18 (Homo sapiens) (UniProt Q07002)", "conditions": "Compound concentration 1000.0 nM"}, "[15]": {"molecular_target": "Serine/threonine-protein kinase LATS1 (Homo sapiens) (UniProt O95835)", "conditions": "Compound concentration 1000.0 nM"}, "[16]": {"molecular_target": "5'-AMP-activated protein kinase catalytic subunit alpha-1 (Homo sapiens) (UniProt Q13131)", "sequence (Q13131 whole entry, looked up)": "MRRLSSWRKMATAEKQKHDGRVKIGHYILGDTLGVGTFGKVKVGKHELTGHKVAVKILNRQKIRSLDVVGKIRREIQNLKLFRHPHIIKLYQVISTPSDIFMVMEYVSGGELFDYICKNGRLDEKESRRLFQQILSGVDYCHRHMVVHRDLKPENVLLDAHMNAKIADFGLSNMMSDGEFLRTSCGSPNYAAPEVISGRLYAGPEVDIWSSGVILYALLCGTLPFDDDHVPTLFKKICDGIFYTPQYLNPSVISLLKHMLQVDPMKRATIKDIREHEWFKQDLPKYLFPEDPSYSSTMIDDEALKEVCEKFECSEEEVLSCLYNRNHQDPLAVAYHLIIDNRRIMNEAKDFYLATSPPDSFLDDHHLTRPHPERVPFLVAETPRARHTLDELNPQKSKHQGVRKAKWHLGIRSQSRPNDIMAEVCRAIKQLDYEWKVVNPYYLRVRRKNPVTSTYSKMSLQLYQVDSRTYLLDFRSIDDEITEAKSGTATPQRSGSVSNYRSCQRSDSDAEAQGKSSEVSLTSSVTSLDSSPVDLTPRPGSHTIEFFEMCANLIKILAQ", "conditions": "Compound concentration 1000.0 nM"}, "[17]": {"molecular_target": "Cyclin-dependent kinase 8 (Homo sapiens) (UniProt P49336)", "sequence (P49336 whole entry)": "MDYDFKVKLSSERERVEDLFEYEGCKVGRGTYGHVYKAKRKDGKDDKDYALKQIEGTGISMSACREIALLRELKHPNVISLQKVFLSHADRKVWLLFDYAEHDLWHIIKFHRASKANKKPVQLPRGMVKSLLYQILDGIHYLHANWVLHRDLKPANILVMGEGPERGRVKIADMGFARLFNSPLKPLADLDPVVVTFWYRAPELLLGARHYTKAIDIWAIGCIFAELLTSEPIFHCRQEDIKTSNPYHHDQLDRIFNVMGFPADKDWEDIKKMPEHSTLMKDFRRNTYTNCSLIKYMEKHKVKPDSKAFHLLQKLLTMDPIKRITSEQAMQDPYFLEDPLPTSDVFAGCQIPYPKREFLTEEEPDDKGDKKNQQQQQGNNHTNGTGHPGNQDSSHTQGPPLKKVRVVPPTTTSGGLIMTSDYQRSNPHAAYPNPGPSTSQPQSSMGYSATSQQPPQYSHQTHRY", "conditions": "Compound concentration 1000.0 nM"}, "[18]": {"molecular_target": "Non-receptor tyrosine-protein kinase TYK2 (Homo sapiens) (UniProt P29597)", "conditions": "Compound concentration 1000.0 nM"}, "[19]": {"molecular_target": "Mitogen-activated protein kinase kinase kinase 15 (Homo sapiens) (UniProt Q6ZN16)", "conditions": "Compound concentration 1000.0 nM"}, "[20]": {"molecular_target": "Calcium/calmodulin-dependent protein kinase type 1 (Homo sapiens) (UniProt Q14012)", "conditions": "Compound concentration 1000.0 nM"}, "[21]": {"molecular_target": "Casein kinase I isoform gamma-1 (Homo sapiens) (UniProt Q9HCP0)", "sequence (Q9HCP0 whole entry, looked up, canonical isoform)": "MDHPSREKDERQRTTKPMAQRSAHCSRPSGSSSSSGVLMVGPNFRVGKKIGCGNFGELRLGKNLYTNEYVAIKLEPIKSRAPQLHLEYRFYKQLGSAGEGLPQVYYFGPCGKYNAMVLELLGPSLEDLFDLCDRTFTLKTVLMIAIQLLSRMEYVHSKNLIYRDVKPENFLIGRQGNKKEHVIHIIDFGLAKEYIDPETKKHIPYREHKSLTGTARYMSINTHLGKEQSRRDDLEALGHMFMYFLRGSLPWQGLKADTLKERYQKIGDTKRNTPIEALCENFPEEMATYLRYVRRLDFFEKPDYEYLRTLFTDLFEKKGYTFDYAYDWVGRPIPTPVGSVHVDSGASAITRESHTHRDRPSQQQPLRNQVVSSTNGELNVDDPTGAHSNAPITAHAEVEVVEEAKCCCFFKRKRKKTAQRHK", "conditions": "Compound concentration 1000.0 nM"}, "[22]": {"molecular_target": "Calcium/calmodulin-dependent protein kinase type 1B (Homo sapiens) (UniProt Q6P2M8)", "conditions": "Compound concentration 1000.0 nM"}, "[23]": {"molecular_target": "Tyrosine-protein kinase Yes (Homo sapiens) (UniProt P07947)", "conditions": "Compound concentration 1000.0 nM"}, "[24]": {"molecular_target": "Protein kinase C theta type (Homo sapiens) (UniProt Q04759)", "conditions": "Compound concentration 1000.0 nM"}, "[25]": {"molecular_target": "Casein kinase I isoform gamma-3 (Homo sapiens) (UniProt Q9Y6M4)", "conditions": "Compound concentration 1000.0 nM"}, "[26]": {"molecular_target": "Bone morphogenetic protein receptor type-2 (Homo sapiens) (UniProt Q13873)", "conditions": "Compound concentration 1000.0 nM"}, "[27]": {"system": "Epidermal growth factor receptor (Homo sapiens), P00533 [UNDEFINED MUTATION]", "conditions": "Compound concentration 1000.0 nM"}, "Histamine H1 receptor": {"molecular_target": "Histamine H1 receptor (Homo sapiens, UniProt P35367)", "conditions": "Compound concentration 10.0 uM"}, "[28]": {"molecular_target": "Beta-1 adrenergic receptor (Homo sapiens) (UniProt P08588)", "conditions": "Compound concentration 10.0 uM"}, "[29]": {"molecular_target": "Delta-type opioid receptor (Homo sapiens) (UniProt P41143)", "conditions": "Compound concentration 10.0 uM"}, "[30]": {"molecular_target": "Activin receptor type-1-like (Homo sapiens) (UniProt P37023)", "sequence (P37023 whole entry)": "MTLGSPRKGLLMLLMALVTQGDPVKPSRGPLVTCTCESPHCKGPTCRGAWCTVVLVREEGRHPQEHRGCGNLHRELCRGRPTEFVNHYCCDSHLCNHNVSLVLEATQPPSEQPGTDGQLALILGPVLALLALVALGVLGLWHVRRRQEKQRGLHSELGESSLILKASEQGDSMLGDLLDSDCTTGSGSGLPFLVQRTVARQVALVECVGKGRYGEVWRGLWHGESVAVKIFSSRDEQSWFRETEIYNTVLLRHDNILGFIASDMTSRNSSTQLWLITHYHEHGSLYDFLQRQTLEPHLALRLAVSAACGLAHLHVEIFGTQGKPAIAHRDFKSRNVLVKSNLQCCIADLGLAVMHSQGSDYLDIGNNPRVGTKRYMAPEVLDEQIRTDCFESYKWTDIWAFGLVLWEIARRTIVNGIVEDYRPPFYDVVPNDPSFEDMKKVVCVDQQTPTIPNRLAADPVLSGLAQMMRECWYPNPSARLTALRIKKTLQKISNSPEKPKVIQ", "conditions": "Compound concentration 1000.0 nM"}, "[31]": {"molecular_target": "Homeodomain-interacting protein kinase 1 (Homo sapiens) (UniProt Q86Z02)", "conditions": "Compound concentration 1000.0 nM"}, "[32]": {"molecular_target": "Serine/threonine-protein kinase DCLK2 (Homo sapiens) (UniProt Q8N568)", "conditions": "Compound concentration 1000.0 nM"}, "[33]": {"molecular_target": "Wee1-like protein kinase (Homo sapiens) (UniProt P30291)", "conditions": "Compound concentration 1000.0 nM"}, "[34]": {"molecular_target": "Alpha-1D adrenergic receptor (Homo sapiens) (UniProt P25100)", "conditions": "Compound concentration 10.0 uM"}, "[35]": {"molecular_target": "Serine/threonine-protein kinase PLK2 (Homo sapiens) (UniProt Q9NYY3)", "conditions": "Compound concentration 1000.0 nM"}, "[36]": {"system": "Phosphatidylinositol 4,5-bisphosphate 3-kinase catalytic subunit alpha isoform (Homo sapiens), P42336 [C420R]", "conditions": "Compound concentration 1000.0 nM"}, "[37]": {"system": "Mast/stem cell growth factor receptor Kit (Homo sapiens), P10721 [V559D,V654A]", "conditions": "Compound concentration 1000.0 nM"}, "[38]": {"molecular_target": "Tyrosine-protein kinase Blk (Homo sapiens) (UniProt P51451)", "conditions": "Compound concentration 1000.0 nM"}, "[39]": {"molecular_target": "Serine/threonine-protein kinase/endoribonuclease IRE1 (Homo sapiens) (UniProt O75460)", "conditions": "Compound concentration 1000.0 nM"}, "[40]": {"molecular_target": "Mitogen-activated protein kinase 9 (Homo sapiens) (UniProt P45984)", "conditions": "Compound concentration 1000.0 nM"}, "[41]": {"molecular_target": "cGMP-dependent protein kinase 1 (Homo sapiens) (UniProt Q13976)", "conditions": "Compound concentration 1000.0 nM"}, "[42]": {"molecular_target": "Mitogen-activated protein kinase kinase kinase kinase 1 (Homo sapiens) (UniProt Q92918)", "conditions": "Compound concentration 1000.0 nM"}, "[43]": {"molecular_target": "Myosin light chain kinase, smooth muscle (Homo sapiens) (UniProt Q15746)", "sequence (Q15746 whole entry)": "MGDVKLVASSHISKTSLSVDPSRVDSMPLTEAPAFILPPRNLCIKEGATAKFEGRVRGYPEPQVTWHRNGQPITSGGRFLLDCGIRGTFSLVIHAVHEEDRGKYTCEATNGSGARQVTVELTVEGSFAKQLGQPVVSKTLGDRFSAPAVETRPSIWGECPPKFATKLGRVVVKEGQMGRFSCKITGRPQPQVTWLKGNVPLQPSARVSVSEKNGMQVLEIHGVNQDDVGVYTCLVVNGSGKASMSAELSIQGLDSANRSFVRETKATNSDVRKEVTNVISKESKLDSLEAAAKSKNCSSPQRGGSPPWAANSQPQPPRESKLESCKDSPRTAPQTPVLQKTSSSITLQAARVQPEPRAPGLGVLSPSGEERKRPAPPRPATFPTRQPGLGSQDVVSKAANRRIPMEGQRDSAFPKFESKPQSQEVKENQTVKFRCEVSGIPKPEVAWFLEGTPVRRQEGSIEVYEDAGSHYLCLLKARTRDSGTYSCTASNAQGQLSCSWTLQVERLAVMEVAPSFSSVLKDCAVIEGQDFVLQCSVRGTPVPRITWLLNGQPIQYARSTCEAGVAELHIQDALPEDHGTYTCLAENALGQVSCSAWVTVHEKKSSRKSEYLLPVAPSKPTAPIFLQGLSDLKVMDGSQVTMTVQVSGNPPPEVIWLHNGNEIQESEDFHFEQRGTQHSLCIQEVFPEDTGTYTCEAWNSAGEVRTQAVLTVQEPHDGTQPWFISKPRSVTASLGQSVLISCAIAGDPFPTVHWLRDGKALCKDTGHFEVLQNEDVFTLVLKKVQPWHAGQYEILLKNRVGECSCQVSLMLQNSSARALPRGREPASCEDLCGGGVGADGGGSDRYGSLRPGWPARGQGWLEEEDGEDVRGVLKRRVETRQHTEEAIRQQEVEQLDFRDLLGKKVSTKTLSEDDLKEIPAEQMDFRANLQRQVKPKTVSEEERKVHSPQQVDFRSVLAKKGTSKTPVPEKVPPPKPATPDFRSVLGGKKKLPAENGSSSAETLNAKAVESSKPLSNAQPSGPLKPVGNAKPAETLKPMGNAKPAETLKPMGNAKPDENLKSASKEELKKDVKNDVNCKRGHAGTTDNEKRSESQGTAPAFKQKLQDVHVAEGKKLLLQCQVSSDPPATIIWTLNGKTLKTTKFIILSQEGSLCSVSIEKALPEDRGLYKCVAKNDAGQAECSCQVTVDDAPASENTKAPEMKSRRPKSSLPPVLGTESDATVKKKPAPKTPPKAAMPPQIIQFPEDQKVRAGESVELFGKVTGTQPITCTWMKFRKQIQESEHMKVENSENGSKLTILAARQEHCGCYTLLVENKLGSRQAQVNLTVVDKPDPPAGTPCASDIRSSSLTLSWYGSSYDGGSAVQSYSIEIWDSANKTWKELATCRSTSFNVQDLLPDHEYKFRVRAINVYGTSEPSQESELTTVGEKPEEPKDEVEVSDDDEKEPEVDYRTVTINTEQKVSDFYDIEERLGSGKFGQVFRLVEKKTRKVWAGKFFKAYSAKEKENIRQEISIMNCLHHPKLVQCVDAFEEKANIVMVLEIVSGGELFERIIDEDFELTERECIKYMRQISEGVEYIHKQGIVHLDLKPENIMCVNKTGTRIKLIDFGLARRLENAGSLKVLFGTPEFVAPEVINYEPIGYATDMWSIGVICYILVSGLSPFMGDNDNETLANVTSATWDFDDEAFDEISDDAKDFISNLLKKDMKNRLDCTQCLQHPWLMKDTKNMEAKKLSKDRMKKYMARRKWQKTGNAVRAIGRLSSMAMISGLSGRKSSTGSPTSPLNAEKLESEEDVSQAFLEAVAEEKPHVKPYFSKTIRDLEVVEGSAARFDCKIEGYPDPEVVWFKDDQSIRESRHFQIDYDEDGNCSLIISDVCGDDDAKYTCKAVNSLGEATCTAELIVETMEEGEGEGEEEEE", "conditions": "Compound concentration 1000.0 nM"}, "[44]": {"molecular_target": "Atypical kinase COQ8A, mitochondrial (Homo sapiens) (UniProt Q8NI60)", "conditions": "Compound concentration 1000.0 nM"}},
  "data": [
    {"molecule": "COc1cccc(CNC(=O)c2nc3scc(COCc4ccc(C(=O)O)cc4)c3c(=O)[nH]2)c1", "note": "[T-26c]", "values": [
      {"measurement": "residual activity", "setting": "[1]", "result": 85.4, "unit": "%"},
      {"measurement": "residual activity", "setting": "[2]", "result": 100, "unit": "%"},
      {"measurement": "residual activity", "setting": "[3]", "result": 77.8, "unit": "%"},
      {"measurement": "inhibition", "setting": "[4]", "result": -1.51, "unit": "%"},
      {"measurement": "residual activity", "setting": "[5]", "result": 100, "unit": "%"},
      {"measurement": "residual activity", "setting": "[6]", "result": 94.3, "unit": "%"},
      {"measurement": "residual activity", "setting": "[7]", "result": 100, "unit": "%"},
      {"measurement": "residual activity", "setting": "[8]", "result": 67.6, "unit": "%"},
      {"measurement": "residual activity", "setting": "[9]", "result": 97.2, "unit": "%"},
      {"measurement": "inhibition", "setting": "[10]", "result": 7.58, "unit": "%"},
      {"measurement": "residual activity", "setting": "[11]", "result": 97.3, "unit": "%"},
      {"measurement": "residual activity", "setting": "[12]", "result": 76.7, "unit": "%"},
      {"measurement": "residual activity", "setting": "[13]", "result": 85.4, "unit": "%"},
      {"measurement": "residual activity", "setting": "[14]", "result": 100, "unit": "%"},
      {"measurement": "residual activity", "setting": "[15]", "result": 100, "unit": "%"},
      {"measurement": "residual activity", "setting": "[16]", "result": 70.3, "unit": "%"},
      {"measurement": "residual activity", "setting": "[17]", "result": 73.4, "unit": "%"},
      {"measurement": "residual activity", "setting": "[18]", "result": 95, "unit": "%"},
      {"measurement": "residual activity", "setting": "[19]", "result": 100, "unit": "%"},
      {"measurement": "residual activity", "setting": "[20]", "result": 88.2, "unit": "%"},
      {"measurement": "residual activity", "setting": "[21]", "result": 100, "unit": "%"},
      {"measurement": "residual activity", "setting": "[22]", "result": 70.7, "unit": "%"},
      {"measurement": "residual activity", "setting": "[23]", "result": 85.2, "unit": "%"},
      {"measurement": "residual activity", "setting": "[24]", "result": 100, "unit": "%"},
      {"measurement": "residual activity", "setting": "[25]", "result": 96.6, "unit": "%"},
      {"measurement": "residual activity", "setting": "[26]", "result": 71.8, "unit": "%"},
      {"measurement": "residual activity", "setting": "[27]", "result": 66.1, "unit": "%"},
      {"measurement": "inhibition", "setting": "Histamine H1 receptor", "result": 50.2, "unit": "%"},
      {"measurement": "inhibition", "setting": "[28]", "result": 29.9, "unit": "%"},
      {"measurement": "inhibition", "setting": "[29]", "result": -5.04, "unit": "%"},
      {"measurement": "residual activity", "setting": "[30]", "result": 100, "unit": "%"},
      {"measurement": "residual activity", "setting": "[31]", "result": 88.4, "unit": "%"},
      {"measurement": "residual activity", "setting": "[32]", "result": 100, "unit": "%"},
      {"measurement": "residual activity", "setting": "[33]", "result": 95.7, "unit": "%"},
      {"measurement": "inhibition", "setting": "[34]", "result": -5.4, "unit": "%"},
      {"measurement": "residual activity", "setting": "[35]", "result": 56.7, "unit": "%"},
      {"measurement": "residual activity", "setting": "[36]", "result": 100, "unit": "%"},
      {"measurement": "residual activity", "setting": "[37]", "result": 98, "unit": "%"},
      {"measurement": "residual activity", "setting": "[38]", "result": 100, "unit": "%"},
      {"measurement": "residual activity", "setting": "[39]", "result": 89.7, "unit": "%"},
      {"measurement": "residual activity", "setting": "[40]", "result": 97.1, "unit": "%"},
      {"measurement": "residual activity", "setting": "[41]", "result": 100, "unit": "%"},
      {"measurement": "residual activity", "setting": "[42]", "result": 100, "unit": "%"},
      {"measurement": "residual activity", "setting": "[43]", "result": 100, "unit": "%"},
      {"measurement": "residual activity", "setting": "[44]", "result": 100, "unit": "%"}
    ]}
  ]
}
